Data: patent US20190076439A1, “AMINOPHENOTHIAZINES FOR MODULATING THE NUMBER OF SYNAPSES” (CONSEJO SUPERIOR DE INVESTIGACIONES CIENTIFICAS (CSIC), priority 2015, published 2019)

Assays:
[1] = target: T1, interaction between human NCS1 and Ric8a (Homo sapiens, UniProt P62166); assay: Coimmunoprecipitation interference test of the NCS1/Ric8a interaction in lysate of transfected HEK293 cells; assay type: biochemical; conditions: HEK293 cells transfected with V5-Ric8a and NCS1; lysate incubated with compound; FIG. 2
T1 construct: The NCS1 construct was subcloned into pCDNA3.1; expressed in transfected cells; host or cells: HEK293
T1 sequence (P62166 2-190 limits assumed): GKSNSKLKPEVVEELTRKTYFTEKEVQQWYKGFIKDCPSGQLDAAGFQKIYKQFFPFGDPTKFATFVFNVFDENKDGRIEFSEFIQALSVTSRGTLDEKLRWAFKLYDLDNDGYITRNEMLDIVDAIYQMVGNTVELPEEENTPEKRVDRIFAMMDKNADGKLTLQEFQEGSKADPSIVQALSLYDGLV
Procedure: The DMSO lane represents a positive control of the interaction.
In order to check whether the interaction which has been previously detected (Romero-Pozuelo J et al. The guanine-exchange factor Ric8a binds to the Ca^2+ sensor NCS-1 to regulate synapse number and neurotransmitter release. J Cell Sci. 2014 Oct. 1; 127(Pt 19):4246-59) between the Drosophila Frq2 and Ric8a proteins, the coimmunoprecipitation of their human equivalents, NCS1 and Ric8a was tested. Human Ric8a was subcloned into nV5pCDNA3.1. The NCS1 construct was subcloned into pCDNA3.1. The cotransfections were carried out in HEK293 cells using the Superfect® (Qiagen®) reagent and lysed 48 hours later. Before its clarification, the lysates were incubated with the respective compound at 4° C. for the night (12 hours) with and without anti-V5 (Invitrogen®) or anti-NCS1 (Cell Signaling Technology®) antibodies as is indicated in each experiment. As a negative control, immunoprecipitations were carried out with an unrelated antibody. The following antibodies and dilutions were used with the Western blots: rabbit anti-NCS1 (1:1000) and mouse anti-V5 (1:2000). […] The Ric8a immunoprecipitation pulls NCS1 and vice versa. […]

[2] = test system: Drosophila fmr1 mutant and wild type larvae
Source text: FIG. 3 A) volume of the neuromuscular plate normalized with respect to the wild type. Wt DMSO=wild type larvae grown in medium with DMSO carrier (200 micromolar), wt FD44=larvae grown in medium with FD44 dissolved in DMSO (200 micromolar), dFMRPmutDMSO=mutant larvae for the fmr1 gene grown in medium with DMSO, dFMRPmut FD44=mutant larvae grown in medium with FD44 (200 micromolar). B) Same genotypes computing the synapse number (immunopositive points for the nc82 monoclonal antibody). C) Same genotypes computing the number of collateral branches. D) Representative images of each genotype. Each image is an accumulation of all the confocal planes.
The mutating in the fmr1 gene corresponds to Fmr1^Δ50M # BL-6930 and the wild type corresponds to the Canton-S strain, all originating from the repository of the Bloomington Drosophila Stock Center. […] Once the medium had cooled, the vials were used normally for placing eggs and growing larvae at 25° C. until reaching the advanced LIII stage.
Reaching the advanced larva III stage, the animals were surgically processed to expose the neuromuscular junctures (NMJ) following the described method (Martin-Peña et al., Age-independent synaptogenesis by phosphoinositide 3 kinase. J Neurosci. 2006 Oct. 4; 26(40):10199-208). The nc82 antibody is a specific monoclonal for the Bruchpilot protein of Drosophila belonging to the CAST family of vertebrae and forms the presynaptic specialization. It was obtained from the Drosophila Hybridoma Bank (DSHB). The anti-HRP antibody produced in rabbits marks the neuronal membrane and was obtained from Jackson ImmunoResearch. A larval neuromuscular juncture was analyzed up to a total of 8-12 larvae per genotype to avoid growth artefacts. The serialized confocal sections of 1 micrometer thickness were analyzed and quantified using the Imaris® program.
The larval preparations were stained with the nc82 antibody to visualize the synapse and with the anti-HRP to visualize the membrane of the axon. Lastly, the synapse number was measured in images obtained in confocal microscopy and quantified by means of Imaris® software.

[3] = target: T2, Drosophila NCS-1 (Frq2) protein (Drosophila melanogaster, UniProt Q9VWX8); assay: Crystallographic structure of the NCS-1 complex with FD44; assay type: binding; conditions: 1.6 Å dataset, FIG. 4
T2 sequence (Q9VWX8 1-187): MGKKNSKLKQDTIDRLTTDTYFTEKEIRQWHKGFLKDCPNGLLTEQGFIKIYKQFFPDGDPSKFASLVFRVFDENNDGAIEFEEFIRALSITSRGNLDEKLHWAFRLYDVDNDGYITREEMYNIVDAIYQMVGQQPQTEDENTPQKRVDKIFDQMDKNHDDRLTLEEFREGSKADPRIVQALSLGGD
Source text: FIG. 4 (A) Representation of the crystallographic structure of the NCS1/FD44 complex. The FD44 molecule is shown in sticks. The 2Fo-Fc map of the small molecule is shown at 1σ. (B) Representation of the electrostatic molecular surface of NCS1 bound to FD44 where the hydrophobic environment of FD44 is observed. (C) Detailed view of the amino acids in contact with FD44. The majority of the interactions are Van der Waals, except a strong hydrogen bond with T92, that is mediated by water molecule (with discontinuous black lines), and three weak hydrogen bonds where a C atom is the hydrogen donor and an O atom is the acceptor. (D) Close-up view of the cavity where FD44 is bound.
The purified Drosophila NCS-1 (Frq2) protein was dialyzed with water and concentrated to 10 mg ml-1 using a concentrator with a cut membrane of 10 kDa (Vivaspin®). 0.3 mg of FD44 were added to 250 μl of protein sample and incubated for 16 hours at 4° C. The insoluble fraction of the compound was separated by centrifugation. The preliminary crystallization experiments were carried out using the Innovadine® crystallization robot and commercial crystallization kits (Molecular Dimensions®, Qiagen®, Hampton Research® and Jena Bioscience®). […]

O=C(CN1CCCCC1)NN1c2ccccc2Sc2ccccc21 [FD44]
inhibition of the interaction between human NCS1 and Ric8a (coimmunoprecipitation, Western blot) [1]: effectively inhibits this interaction | neuronal projection volume (volume of the neuromuscular plate) ([2]; fmr1 mutant larvae, 200 micromolar in culture medium, FIG. 3A): reverts the neuronal projection volume to the normal levels of the controls | synapse number (nc82 immunopositive points) ([2]; fmr1 mutant larvae, 200 micromolar in culture medium, FIG. 3B): reversion in the mutant which has ingested FD44 | effect on wild type control (volume of the neuromuscular plate) ([2]; in vivo): innocuous for the wild type control | collateral branch number (neuritogenesis) ([2]; wild type and fmr1 mutant larvae, 200 micromolar in culture medium, FIG. 3C): does not show any change | binding mode in the NCS-1 crystal complex [3]: inserted in the N-terminal part of the elongated hydrophobic groove
